Here are results for three compounds from US20140256663A1, “Amphotericin Analogous Compounds and Pharmaceutical Compositions Containing Them” (CENTRO DE INVESTIGACION Y DE ESTUDIOS AVANZADOS DEL …, priority 2010, published 2014).

Entries after “also recorded” stand apart in the source; their conditions may differ.

For data set [1] the following is noted: Recarrier K. thesis; cited from earlier work.
Data set [2] has as its system Saccharomyces cerevisae FY833(SC) cells. The experiment in a line: Viability of Saccharomyces cerevisae FY833 (SC) cells at various concentrations. Type of data set: cell-based. The settings on record: FIG. 1, various concentrations. The procedure: All derivatives were tested for antibiotic activity in yeast cultures of S. cerevisiae.
For data set [3], the system named is Candida albicans ATCC 752. The experiment in a line: Antifungal activity in vitro by flow cytometry, Candida albicans ATCC 752. Type of data set: cell-based. The settings on record: ATCC752, 24 h at 37° C., read-out: CF50 Candida albicans ATCC 752. The procedure:
(§1) The antifungal activity of the polyene macrolide derivate of the present invention was determined by flow cytometry method earlier described (Pinto et al., J. Medical Microbiology, 2009; 58, 1454-1462; Pina-Vaz and Rodriguez, Methods Mol. Biol. 2010; 638:281-289). For the test two strains of Candida albicans (ATCC 10231 and 752) and Candida kruzei were used. A cellular suspension of 1×10^6 UFC/mL was used, which has sown in 96-well plates. […] As controls were used: untreated yeasts (control of living cells), yeasts exposed to UV radiation (arrest, inhibition of proliferation), and yeasts exposed at temperature of 100° C. (dead yeasts). Cells were collected by centrifugation at 10,000×g for 10 min, they were washed once in phosphate buffer. […] of propidium iodide 0.1 mg/mL were added to the cell suspension. It was incubated during 30 minutes at room temperature and protected from light. Finally, the samples were analyzed by flow cytometry (Becton-Dickinson Facsc Calibur, laser argon 480 nm). The intrinsic parameters and fluorescence in the FL2 channel (yellow/orange fluorescence) for FUN and channel FL3 (red fluorescence, filter 630 nm) for propidium iodide were acquired and registered on a logarithmic scale for a minimum of 7500 events per sample. For data analysis, the quadrants were adjusted in a plot of data lines of fluorescence intensity of samples. […] These quadrants were used to quantify the percentile of cells showing altered fluorescence compared to drug-free controls.

The subject of data set [4] is Candida albicans ATCC 10231. The data set can be described thus: Antifungal activity in vitro by flow cytometry, Candida albicans ATCC 10231. The settings on record: ATCC10231, 24 h at 37° C., read-out: CF50 Candida albicans ATCC 10231. The format is cell-based. The procedure:
as §1

The nature of data set [5]: Unit channel studies in chicken egg lecithin bilayers with cholesterol. As to conditions: for Opening probability, channel type I / Opening probability, channel type II / Opening probability, channel type III / Opening probability, channel type IV / Opening probability, channel type V / Opening probability, channel type VI: 200 μM compound, 30 mol % cholesterol, 27° C.; for activity of transmembranal channels in the cholesterol membrane: in words, compared to AmB. The procedure:
The activity is determined by the presence of the different channels formed by polyenes in the lipid bilayer (Cotero, et al., supra; Venegas, et al., supra). […] These values were determined by the technique of unit channel delineated above.
Unit channel studies were performed according to procedures described earlier (Cotero, et al., supra, Venegas, et al., supra). Required liposomal suspensions were prepared using lecithin with cholesterol or ergosterol. These suspensions were placed in an ultrasonic bath for 15 minutes to produce unilamellar vesicles. Subsequently, the suspension was placed in a 100 μl eppendorf and a lipid bilayer was formed on the tip of a micro-electrode. The unit channels of amphotericin and of the invented compounds were incorporated to this bilayer. The unit channel current of the various compounds was recorded with an electrometer, and then these records were analyzed by determining the activity of the compounds and the characteristics of the channels formed.
The activity is determined by the presence of the various channels formed by polyenes in the lipid bilayer (Cotero, et al., supra, Venegas, et al., supra). […] This conductance is the effect of all the channels present and was determined by the unit channel technique earlier described.

The test system of a further data set is Candida kruzei. The experiment in a line: Antifungal activity in vitro by flow cytometry, Candida kruzei. As to conditions: 24 h at 37° C., read-out: CF50 Candida kruzei. The format is cell-based. The procedure:
as §1

A further data set deals with human erythrocytes. The experiment in a line: Hemolytic assay on human erythrocytes. The format is cell-based. The settings on record: 1 hour. The procedure:
The hemotoxicity of the polyene macrolide derivative of the present invention was determined by measuring the toxicity to human erythrocytes (values HE50) using a method established by Cybulska, et al. (Cybulska, B., Borowski, E. and Gary-Bobo, M. Relationship between ionophoric and hemolytic activities of perimycin A and vacidin A, two polyene macrolide antifungal antibiotics. Biochem Pharmacol. 1989; 38(11): 1755-1762). For determining the haematoxicity 2 mL blood were obtained and placed in a tube with EDTA. The number of erythrocytes was counted in a Neubauer chamber, and 1×10^7 cells/mL were placed in test tubes. The erythrocytes were resuspended in 450 μL of KCl 150 mM+Tris 3 mM buffer. The erythrocytes were treated with concentrations of 0.01, 0.1, 1, 10 y 100 μM and incubated in a water bath for 1 hour. They were then centrifuged at 1500 rpm for 15 seconds; 150 μL were taken from the supernatant and placed in 96-well plates; the optical density of each group was measured using a plate reader at a wavelength of 550 nm. We included one tube with the drug solvent (DMSO 1%) as internal control. We also included one tube only with erythrocytes and 500 μl of buffer KCl 150 mM+Tris 3 mM, which we consider as a negative control group and a tube with 500 μl of red cells and 35 mM NaCl (positive control).

In data set [6] the test system is human renal cells 293Q (ATCC CLR-1573). The data set can be described thus: MTT cytotoxicity on human renal cells 293Q. The settings on record: for DT50 CitE50: human renal cells 293Q, 24 h. The procedure:
For cytotoxicity studies human kidney cells (ATCC No. CRL-1573) were used. The cells were cultured with Minimum Essential Medium (MEM) (GIBCO BRL), supplemented with 10% fetal bovine serum (FBS) (GIBCO BRL), 2 mM 1-glutamine (GIBCO BRL), 1.5 gL Na2HCO3 (Sigma Chemical Co), 0.1 mM nonessential amino acids (Sigma Chemical Co), and 1 mM sodium pyruvate (In vitro, S.A.). The technique of bromide of 3(4,5-dimethylthiazol-2-yl)-2,5-diphenyl tetrazolium (MTT) (Sigma Chemical Co) was applied; a technique which is based on the conversion of dye to an insoluble precipitate called formazan. This test is used as an indicator of mitochondrial function in living cells that measures the metabolic capacity in cells and serves as an indicator of cytotoxicity. […] (Mosman […], Immunol Methods, 65: 55-63). The cytoxicity test consisted of planting 10,000 cells per well in 96-well plates (Corning Incorporated Costar) in MEM and incubate them (Nuaire us autoflow CO2 water-jacketed incubator) during 24 h at 37° C. and 5% CO2. […] After incubation, cells were treated and incubated anew for 24 h. After this time the medium was aspirated carefully and replaced with 200 μL of fresh medium, and 50 μL of MTT was added for a total volume of 250 μl. They were then incubated for 4 hours in the above conditions. After that time the medium with MTT was carefully removed and 200 μL of DMSO and 25 μL of Sorensen buffer (0.1 M glycine+0.1 M NaCl at pH 10.5) were added to each well. The plate was then mixed until the formazan crystals dissolved, and it was finally read in a plate reader (Microplate Limaning System Ultramark, Biorad) at a wavelength of 550 nm.
For the tests, we used human renal ephythelial cells (293Q) (ATCC Catalog No. CRL-1573). The cells were cultured with Minimum Essential Medium (MEM) (GIBCO BRL) supplemented with 10% fetal bovine serum (FBS) (GIBCO BRL), 2 mM L-glutamine (GIBCO BRL), 1.5 g/L Na2HCO3 (Sigma Chemical Co), 0.1 mM nonessential amino acids (Sigma Chemical Co), and 1 mM sodium pyruvate (In vitro, S.A.). For cytoxicity tests, we applied the technique of bromide 3(4,5-dimethylthiazol-2-yl)-2,5-diphenyl tetrazolium (MTT) (Sigma Chemical Co), which is based on the conversion of the dye to an insoluble precipitate called formazan. This test is used as an indicator of mitochondrial function in living cells which measures the metabolic capacity in cells and serves as an indicator of cytotoxicity. (Wang, H. Z., Chang, C. H., Lin, C. P., Tsai, M. C). Using MTT viability assay to test the cytotoxicity of antibiotics and steroid to cultured porcine corneal endothelial cells. J. Ocul. Pharmacol. Ther. 1996; 12: 35-43). For the essay 10,000 cells were seeded per well in 96-well plates (Corning Incorporated Costar) in the medium already indicated and incubated for 24 h at 37° C. and 5% CO2. […] After incubation, cells were treated and incubated again for 24 h. The medium was carefully aspirated and replaced with 200 μl fresh medium, adding 50 μl MTT solution for a total volume of 250 μl. They were then incubated for 4 hours in the above conditions. The medium was carefully removed with MTT and 200 μl DMSO and 25 μl Sorense buffer (0.1 M glycine+0.1 M NaCl at pH 10.5) was added to each well. Then the plate was mixed until the formazan crystals dissolved; it was finally read in a reader plate (Microplate Limaning System Ultramark, Biorad) at a wavelength of 550 nm.

As for `C[C@@H]1[C@H](O)[C@@H](C)/C=C/C=C/CC/C=C/C=C/C=C/C=C/C(O[C@H]2O[C@H](C)[C@@H](O)[C@H](N)[C@@H]2O)CC2O[C@](O)(CC(O)C(O)CCC(O)CC(O)CC(O)CC(=O)O[C@H]1C)CC(O)C2C(=O)O` (stereo partly shown) [nystatin], in data set [1], the “selectivity ergosterol versus cholesterol POPC membranes” value was “much higher selectivity”.
For the compound `CC1OC(O[C@H]2/C=C/C=C/C=C/C=C/C=C/C=C/C=C/C(C)[C@@H](O)C(C)C(C)OC(=O)C[C@H](O)C[C@H](O)CC[C@@H](O)[C@H](O)C[C@H](O)C[C@]3(O)CC(O)[C@@H](C(=O)NCc4ccccc4)C(C2)O3)C(O)C(N)C1O` (stereo partly shown) [A-1, N-benzylamide of AmB], in data set [2] (listed as amide 1), the “inhibitory capacity / potency on SC cells compared to AmB” value was “the most similar; also recorded: the highest power of the derivatives”. Further, the IC50 in data set [3] was above 100 µM. In data set [4], the IC50 is above 100 µM. For the same compound, in data set [5], the “Opening probability, channel type I” value amounted to 2%; the “Opening probability, channel type II” value worked out at 1%; the “Opening probability, channel type III” value is recorded as below 1%; the “Opening probability, channel type IV” value is recorded as below 1%. In data set [5], the “Opening probability, channel type V” value is given as below 1%; the “Opening probability, channel type VI” value was below 1%; the “activity of transmembranal channels in the cholesterol membrane” value is listed as “low activity of transmembranal channels”. Also, the IC50 in the data set with Candida kruzei is above 100 µM. Also, the “HE50 (Hemolysis 50)” value with human erythrocytes was 52 µM. Also, the “DT50 CitE50” value in data set [6] worked out at 100 µM.
Take `CC1OC(O[C@H]2/C=C/C=C/C=C/C=C/C=C/C=C/C=C/C(C)[C@@H](O)C(C)C(C)OC(=O)C[C@H](O)C[C@H](O)CC[C@@H](O)[C@H](O)C[C@H](O)C[C@]3(O)CC(O)[C@@H](C(=O)N(C(C)C)C(C)C)C(C2)O3)C(O)C(N)C1O` (stereo partly shown) [A-3, N-diisopropylamide of AmB]: the “inhibitory capacity / potency on SC cells compared to AmB” value in data set [2] is “low potency in fungal cells”. Further, the IC50 in data set [3] was above 100 µM. Also, the IC50 in data set [4] is above 50 µM. Besides, in data set [5], the “Opening probability, channel type I” value is on record as below 1%; the “Opening probability, channel type II” value is “N.O”; the “Opening probability, channel type III” value is recorded as “N.O”; the “Opening probability, channel type IV” value was “N.O”. In data set [5], the “Opening probability, channel type V” value was “N.O”; the “Opening probability, channel type VI” value is on record as “N.O”; the “activity of transmembranal channels in the cholesterol membrane” value is “more reduced presence of channels in membranes with cholesterol”. Besides, the IC50 in the data set on Candida kruzei was above 100 µM. In the data set with human erythrocytes, the “HE50 (Hemolysis 50)” value turned out to be 53 µM. Further, the “collateral cytotoxicity on human renal cells 293Q compared to AmB” value in data set [6] (FIG. 2, FIG. 8) is on record as “low cytoxicity”. Further, the “DT50 CitE50” value in data set [6] came out at 180 µM.
